Measurements reported in PubChem BioAssay (NCI).
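Five compound concentrations were applied to cells in 96-well plates for 48 hours; endpoints were derived by simple linear interpolation of the resulting dose-response curve. TGI marks complete inhibition of growth.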

What was measured:
Experiment in all cases: NCI anticancer screen, dose series, 48 h
RPMI-8226 leukemia = system: RPMI-8226 leukemia
SF-268 CNS = system: SF-268 CNS
OVCAR-4 ovarian = system: OVCAR-4 ovarian
UO-31 renal = system: UO-31 renal
SNB-19 CNS = system: SNB-19 CNS
IGROV1 ovarian = system: IGROV1 ovarian
ACHN renal = system: ACHN renal
OVCAR-5 ovarian = system: OVCAR-5 ovarian
PC-3 prostate = system: PC-3 prostate
UACC-257 melanoma = system: UACC-257 melanoma
MDA-MB-435 = system: MDA-MB-435
SK-OV-3 ovarian = system: SK-OV-3 ovarian
OVCAR-3 ovarian = system: OVCAR-3 ovarian
LOX IMVI melanoma = system: LOX IMVI melanoma
SK-MEL-5 melanoma = system: SK-MEL-5 melanoma
CAKI-1 renal = system: CAKI-1 renal
MCF7 breast = system: MCF7 breast
NCI-H522 lung = system: NCI-H522 lung
HS 578T breast = system: HS 578T breast
SR leukemia = system: SR leukemia
A549 NSCLC = system: A549 NSCLC
OVCAR-8 ovarian = system: OVCAR-8 ovarian
SNB-75 CNS = system: SNB-75 CNS
SK-MEL-2 melanoma = system: SK-MEL-2 melanoma
SW-620 colon = system: SW-620 colon
NCI/ADR-RES ovarian = system: NCI/ADR-RES ovarian
SF-295 CNS = system: SF-295 CNS
NCI-H23 lung = system: NCI-H23 lung
COLO 205 colon = system: COLO 205 colon
RXF 393 renal = system: RXF 393 renal
M14 melanoma = system: M14 melanoma
MDA-MB-231 breast = system: MDA-MB-231 breast
HOP-62 NSCLC = system: HOP-62 NSCLC
T-47D breast = system: T-47D breast
U251 CNS = system: U251 CNS
MOLT-4 leukemia = system: MOLT-4 leukemia
K-562 leukemia = system: K-562 leukemia
KM12 colon = system: KM12 colon
HCT-15 colon = system: HCT-15 colon
NCI-H226 lung = system: NCI-H226 lung
BT-549 breast = system: BT-549 breast
A498 renal = system: A498 renal
NCI-H460 lung = system: NCI-H460 lung
HOP-92 NSCLC = system: HOP-92 NSCLC
786-0 renal = system: 786-0 renal
UACC-62 melanoma = system: UACC-62 melanoma
SF-539 CNS = system: SF-539 CNS
EKVX NSCLC = system: EKVX NSCLC
TK-10 renal = system: TK-10 renal
MDA-N = system: MDA-N
HT29 colon = system: HT29 colon
MALME-3M melanoma = system: MALME-3M melanoma
SK-MEL-28 melanoma = system: SK-MEL-28 melanoma
HCT-116 colon = system: HCT-116 colon
SN12C renal = system: SN12C renal
HCC-2998 colon = system: HCC-2998 colon
DU-145 prostate = system: DU-145 prostate

Measured: TGI

NS(=O)(=O)c1nc(S(=O)(=O)O)c2[nH]cnc2n1
not listed: HCC-2998 colon | DU-145 prostate
> 100 µM: all other assays above

N#Cc1nc2cc(Cl)ccc2nc1N1CCN(c2ccc([N+](=O)[O-])cc2)CC1
not listed: IGROV1 ovarian | LOX IMVI melanoma | NCI-H522 lung | SR leukemia | SK-MEL-2 melanoma | NCI-H226 lung | HOP-92 NSCLC | MALME-3M melanoma
> 100 µM: all other assays above
